US12297476B2, “Metallic nanoparticles and methods of making and using the same” (Saint Joseph's University, priority 2020, dated 2025)

System: Medicago sativa cells
Details: 200 ppm (highest concentration), after two weeks of continuous growth in liquid medium
Description: To determine the IC50 of KAuCl4, the filter sterilized stock solution of KAuCl4 (prepared in deionized water) was added at different concentrations (10-200 ppm) to 20 mL culture having a cell density of 20,000 cells/mL and incubated on the shaker for 2 weeks. Culture aliquots (1 mL) were collected at an interval of 48 h, spun at 2000 rpm for 10 min, stained with phosphate buffered Trypan Blue, and dead cells were counted using a haemocytometer. Percentage of cell death was determined from the total cell number.

Compound: [Cl][Au-]([Cl])([Cl])[Cl].[K+] [KAuCl4, potassium gold chloride]
- cells eliminated from the culture (cell death): 25%
